Measurements taken from ChEMBL document CHEMBL5543059, “Discovery of anti-inflammatory natural flavonoids: Diverse scaffolds and promising leads for drug discovery” (Eur J Med Chem, 2023).
pIC50: −log10 of the molar value.

Key:
J774.A1 [1] = experiment: Antiinflammatory activity against mouse J774.A1 cells assessed as inhibition of LPS-stimulated IL-1beta level by ELISA method; type: functional, cell-based
Rattus norvegicus [2] = experiment: Anti-inflammatory activity in LPS-induced Sprague-Dawley rat assessed as reduction in IL-1beta level at 20 mg/kg, po pre-incubated for 1 hr with compound followed by LPS-stimulation measured for 24 hrs by ELISA analysis; type: functional; design: scale not given: the % may be the effect or the level left; conditions: time 25 hrs
J774.A1 [3] = experiment: Antiinflammatory activity against mouse J774.A1 cells assessed as inhibition of LPS-stimulated TNF-alpha level by ELISA method; type: functional, cell-based; conditions: Mus musculus, J774.A1; read-out: IC50
RAW264.7 [4] = experiment: Anti-inflammatory activity against mouse RAW264.7 cells assessed as inhibition of TNF-alpha production incubated for 18 hrs by ELISA analysis; type: functional, cell-based; conditions: RAW264.7, 18 h
RAW264.7 [5] = experiment: Antiinflammatory activity against mouse RAW264.7 cells assessed as inhibition of LPS-stimulated IL-1beta level by ELISA method; type: functional, cell-based
RAW264.7 [6] = experiment: Antiinflammatory activity against mouse RAW264.7 cells assessed as inhibition of LPS-stimulated TNF-alpha level by ELISA method; type: functional, cell-based
RAW264.7 [7] = experiment: Anti-inflammatory activity against mouse RAW264.7 cells assessed as inhibition of IL-1beta level incubated for 18 hrs by ELISA analysis; type: functional, cell-based; conditions: RAW264.7, 18 h
Rattus norvegicus [8] = experiment: Anti-inflammatory activity in LPS-induced Sprague-Dawley rat assessed as reduction in TNF-alpha level at 20 mg/kg, po pre-incubated for 1 hr with compound followed by LPS-stimulation measured for 24 hrs by ELISA analysis; type: functional; design: scale not given: the % may be the effect or the level left; conditions: time 25 hrs
Neutrophil [9] = experiment: Inhibition of fMLF-induced chemotaxis in human neutrophils pretreated for 45 mins followed by fMLF-stimulation measured for 1 hr by luminescence based analysis; type: functional, cell-based
Mus musculus [10] = experiment: Antiinflammatory activity in carrageenan-induced Kunming mouse model of paw edema assessed as paw volume at 1 mg/kg, ip pre-incubated for 1 hr followed by carrageenan administration measured for 60 mins relative to control; type: functional; conditions: time 2 hrs
Mus musculus [11] = experiment: Analgesic activity against acetic acid-induced BALB/c writhing mouse model assessed as inhibition of writhing at 10 mg/kg, ip pre-incubated for 30 mins followed by acetic acid addition and measured after 15 mins relative to control; type: functional; design: scale not given: the % may be the effect or the level left; conditions: time 45 min, 0.75 h
RAW264.7 [12] = experiment: Anti-inflammatory activity in mouse RAW264.7 cells assessed as inhibition of LPS-induced IL-6 production at 50 microg/ml relative to control; type: functional; design: scale not given: the % may be the effect or the level left; conditions: dose 50 µg/ml
RAW264.7 [13] = experiment: Anti-inflammatory activity in mouse RAW264.7 cells assessed as inhibition of LPS-induced TNF-alpha production at 50 microg/ml relative to control; type: functional; design: scale not given: the % may be the effect or the level left; conditions: dose 50 µg/ml
RAW264.7 [14] = experiment: Anti-inflammatory activity in LPS-stimulated mouse RAW264.7 cells assessed as reduction in NO production incubated for 24 hrs by Griess reagent based assay; type: functional, cell-based; conditions: RAW264.7, 24 h
Neutrophil [15] = experiment: Inhibition of fMLF/CB-induced human Neutrophil activation assessed as reduction in elastase release using MeO-Suc-Ala-Ala-Pro-Val-pnitroanilide as substrate pre-incubated for 2 mins followed by fMLF/CB-stimulation and measured for 5 mins; type: functional, cell-based
HaCaT = experiment: Anti-inflammatory activity in LPS-stimulated human HaCaT cells assessed as reduction of IL-6 expression at 12.5 uM; type: functional; design: scale not given: the % may be the effect or the level left
[16] = target: Transient receptor potential cation channel subfamily V member 1 (Homo sapiens) (UniProt Q8NER1); experiment: Inhibition of TRPV-1 (unknown origin) at 12.5 uM relative to control
Chain of Transient receptor potential cation channel subfamily V member 1 (Homo sapiens) (Q8NER1 whole entry): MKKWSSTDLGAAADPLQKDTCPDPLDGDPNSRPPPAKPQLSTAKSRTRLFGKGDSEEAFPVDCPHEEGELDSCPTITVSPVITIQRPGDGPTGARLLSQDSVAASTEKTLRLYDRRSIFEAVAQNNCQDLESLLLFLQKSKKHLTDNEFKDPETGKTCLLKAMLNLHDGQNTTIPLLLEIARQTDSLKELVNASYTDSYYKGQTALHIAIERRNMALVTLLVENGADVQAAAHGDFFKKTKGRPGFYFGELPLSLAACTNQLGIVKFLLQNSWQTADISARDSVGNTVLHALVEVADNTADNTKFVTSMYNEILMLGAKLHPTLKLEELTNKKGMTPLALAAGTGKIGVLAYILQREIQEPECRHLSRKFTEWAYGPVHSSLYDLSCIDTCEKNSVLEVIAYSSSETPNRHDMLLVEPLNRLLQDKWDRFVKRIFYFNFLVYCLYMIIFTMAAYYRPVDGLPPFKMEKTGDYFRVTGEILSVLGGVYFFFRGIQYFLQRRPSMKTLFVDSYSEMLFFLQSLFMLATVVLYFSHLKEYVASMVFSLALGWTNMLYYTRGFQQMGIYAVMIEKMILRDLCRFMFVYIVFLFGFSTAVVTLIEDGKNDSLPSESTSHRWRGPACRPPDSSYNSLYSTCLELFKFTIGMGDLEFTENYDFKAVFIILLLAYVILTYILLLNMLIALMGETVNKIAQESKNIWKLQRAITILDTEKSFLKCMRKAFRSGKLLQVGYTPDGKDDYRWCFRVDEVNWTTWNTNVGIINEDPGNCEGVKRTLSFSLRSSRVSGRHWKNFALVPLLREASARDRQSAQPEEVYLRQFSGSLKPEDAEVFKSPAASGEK

RAW264.7 [17] = experiment: Anti-inflammatory activity against mouse RAW264.7 cells assessed as inhibition of LPS-induced NO production pre-treated with compound for 1 hr followed by LPS-stimulation and measured for 1 hr; type: functional, cell-based
RAW264.7 [18] = experiment: Anti-inflammatory activity against LPS-stimulated mouse RAW264.7 cells assessed as inhibition of IL-6 expression at 10 uM by qRT-PCR analysis relative to control; type: functional; design: scale not given: the % may be the effect or the level left
RAW264.7 [19] = experiment: Antiinflammatory activity in mouse RAW264.7 cells assessed as decrease in LPS-induced IL-6 secretion after 24 hrs by ELISA method; type: functional, cell-based; conditions: RAW264.7, 24 h
BV-2 = experiment: Anti-inflammatory activity in mouse BV-2 cells assessed as inhibition of LPS-induced NO production preincubated with compound for 1 hrs followed by LPS stimulation and measured after 24 hrs by Griess reagent based assay; type: functional, cell-based
HepG2 = experiment: Anti-inflammatory activity against TNFalpha-induced human HepG2 cells assessed as inhibition of NF-kappaB activity pre-indubated for 1 hr followed by TNFalpha treatment measured for 5 hrs by luciferase based assay; type: functional, cell-based
RAW264.7 [20] = experiment: Antiinflammatory activity in mouse RAW264.7 cells assessed as decrease in LPS-stimulated IL-6 mRNA level incubated for 3 hrs by RT-qPCR analysis; type: functional, cell-based; conditions: RAW264.7, 3 h
[21] = Anti-inflammatory activity in LPS-stimulated human PBMC cells assessed as inhibition of TNFalpha at 100 ug/ml relative to control; type: functional; design: scale not given: the % may be the effect or the level left; conditions: dose 100 µg/ml
RAW264.7 [22] = experiment: Antiinflammatory activity against mouse RAW264.7 cells assessed as reduction of LPS-induced NO production; type: functional, cell-based
Neutrophil [23] = experiment: Inhibition of fMLF/CB-induced human Neutrophil activation assessed as reduction in elastase release at 10 uM relative to control; type: functional; design: scale not given: the % may be the effect or the level left
[24] = Anti-inflammatory activity in carrageenan-induced human PBMC cells assessed as inhibition of IL-beta leakage at 10 uM measured for 24 hrs relative to control; type: functional; design: scale not given: the % may be the effect or the level left
Rattus norvegicus [25] = experiment: Anti-inflammatory activity against carrageenan-induced paw edema in Wistar rat assessed as reduction in paw edema at 100 mg/kg, po measured after 3 hrs relative to control; type: functional; design: scale not given: the % may be the effect or the level left
Neutrophil elastase = target: T1, Neutrophil elastase (Homo sapiens, UniProt P08246); experiment: Inhibition of human Neutrophil elastase; type: cell-based
T1 sequence (P08246 whole entry): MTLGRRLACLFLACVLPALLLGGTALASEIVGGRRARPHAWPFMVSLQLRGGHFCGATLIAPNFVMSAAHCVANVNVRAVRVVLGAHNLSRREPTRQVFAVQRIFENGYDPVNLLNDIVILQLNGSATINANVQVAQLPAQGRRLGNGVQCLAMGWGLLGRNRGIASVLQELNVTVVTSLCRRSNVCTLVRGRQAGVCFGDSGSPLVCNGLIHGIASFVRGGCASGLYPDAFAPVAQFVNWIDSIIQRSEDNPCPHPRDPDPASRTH

Mus musculus [26] = experiment: Anti-inflammatory activity against xylene-induced ear edema Swiss mouse model assessed as inhibition of ear edema at 0.025 ug/ml, po measured after 6 hrs relative to control; type: functional; design: scale not given: the % may be the effect or the level left; conditions: dose 0.025 µg/ml
Rattus norvegicus [27] = experiment: Anti-inflammatory activity against carrageenan-induced paw edema in Wistar rat assessed as reduction in paw edema at 100 mg/kg, po measured after 1 hrs relative to control; type: functional; design: scale not given: the % may be the effect or the level left
Mus musculus [28] = experiment: Anti-inflammatory activity against xylene-induced ear edema Swiss mouse model assessed as inhibition of ear edema at 0.25 ug/ml, po measured after 6 hrs relative to control; type: functional; design: scale not given: the % may be the effect or the level left; conditions: dose 0.25 µg/ml
Neutrophil [29] = experiment: Inhibition of fMLP-induced cell migration in human neutrophil; type: functional, cell-based

## COc1cc(O)c2c(c1)OC(c1ccccc1)CC2=O (stereo not drawn)
J774.A1 [1]
  pIC50: 4.71
Rattus norvegicus [2]
  Activity: 53.1%
J774.A1 [3]
  pIC50: 4.43
RAW264.7 [4]
  pIC50: > 4.66
RAW264.7 [5]
  pIC50: 4.76
RAW264.7 [6]
  pIC50: 4.63
RAW264.7 [7]
  pIC50: 4.40
Rattus norvegicus [8]
  Activity: 48.6%

## O=c1cc(-c2ccccc2)oc2cc(O)cc(O)c12 [CHRYSIN]
Neutrophil [9]
  pIC50: 5.65
Mus musculus [10]
  Activity: 25%
Mus musculus [11]
  Activity: 56%

## O=c1cc(-c2ccc(O)c(O)c2)oc2cc(O)cc(O)c12 [LUTEOLIN]
RAW264.7 [12]
  Activity: 37%
RAW264.7 [13]
  Activity: 38%
RAW264.7 [14]
  pIC50: 5.92

## COc1cc(O)c2c(=O)cc(-c3ccc(O)c(O)c3)oc2c1
Neutrophil [15]
  pIC50: ≥ 4.82
HaCaT
  Activity: 52%
[16]
  inhibition: 33%

## CC(C)=CCC/C(C)=C/Cc1c(O)ccc2c1O[C@H](c1ccc(O)cc1)CC2=O
RAW264.7 [17]
  pIC50: 5.09

## O=c1c(O)c(-c2ccc(O)c(O)c2)oc2cc(O)cc(O)c12 [QUERCETIN]
RAW264.7 [18]
  Activity: 83.3%
RAW264.7 [19]
  pIC50: 4.45
BV-2
  pIC50: 4.90
HepG2
  pIC50: 4.82
RAW264.7 [20]
  pIC50: 4.65
[21]
  Activity: 28.6%
RAW264.7 [22]
  pIC50: 4.85

## COc1ccc(-c2cc(=O)c3c(O)c(OC)c(OC)c(OC)c3o2)cc1OC [5-DEMETHYLNOBILETIN]
Neutrophil [23]
  Activity: 89%
[24]
  Activity: 24.8%
Rattus norvegicus [25]
  Activity: 47%
Neutrophil elastase
  pIC50: 6.46
Mus musculus [26]
  Activity: 79%
Rattus norvegicus [27]
  Activity: 65%
Mus musculus [28]
  Activity: 41%

## COc1cc(O)c2c(=O)cc(-c3ccccc3)oc2c1 [TECHTOCHRYSIN]
Neutrophil [29]
  pIC50: 5.75
